In patent publication US9708314B2, “Heterocyclic amide compound” (NISSAN CHEMICAL INDUSTRIES, LTD., priority 2013, dated 2017):

Legend:
Format in all cases: in vivo
[1] = tested on: Echinochloa crus-galli var. crus-galli; assay: Test Example 4: herbicidal effect by application to foliage (diluvial soil, plastic box); details: Application herbicide amount 320 g/ha
How it was run: (§1)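 Greenhouse plants (25° C. to 30° C., 14 d, diluvial soil) receive a foliar spray of water-diluted emulsifiable formulation at defined g/ha. Grading after 3 weeks uses a six-step herbicidal-ratio scale, with 4 covering 70% to <90% and 1 covering 5% to <20%.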

[2] = tested on: Digitaria ciliaris; assay: as above; details: Application herbicide amount 320 g/ha
How it was run: as §1

[3] = tested on: Abutilon theophrasti; assay: as above; details: Application herbicide amount 320 g/ha
How it was run: as §1

[4] = tested on: Veronica persica; assay: as above; details: Application herbicide amount 320 g/ha
How it was run: as §1

[5] = tested on: Lolium multiflorum Lam.; assay: as above; details: Application herbicide amount 320 g/ha
How it was run: as §1

[6] = tested on: Avena fatua; assay: as above; details: Application herbicide amount 320 g/ha
How it was run: as §1

[7] = tested on: Galium spurium; assay: as above; details: Application herbicide amount 320 g/ha
How it was run: as §1

[8] = tested on: Apera spica-venti.; assay: as above; details: Application herbicide amount 320 g/ha
How it was run: as §1

[9] = tested on: Alopecurus myosuroides; assay: as above; details: Application herbicide amount 320 g/ha
How it was run: as §1

[10] = tested on: Monochoria vaginalis; assay: Test Example 2: herbicidal activity, application during weed generation in submerged conditions; details: Eighteenth Table; application herbicide amount 320 g/ha
How it was run: (§2)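 Seeds were sown together in alluvial soil kept under 4 cm of water and grown at 25 °C to 30 °C. Once plants reached the one- to two-leaf stage, the diluted emulsion was applied to the water surface at a predetermined g/ha amount, and effects were rated 0–5 after three weeks.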

[11] = tested on: Echinochloa oryzacola Vasing.; assay: as above; details: Eighteenth Table; application herbicide amount 320 g/ha
How it was run: as §2

[12] = tested on: Scirpus juncoides; assay: as above; details: Eighteenth Table; application herbicide amount 320 g/ha
How it was run: as §2

[13] = tested on: Brassica campestris L.; assay: Test Example 4: effect on crop by application to foliage (diluvial soil, plastic box); details: Application herbicide amount 320 g/ha; effect on crop
How it was run: as §1

[14] = tested on: directly sowed Oryza sativa; assay: as above; details: Application herbicide amount 320 g/ha; effect on crop
How it was run: as §1

[15] = tested on: Zea mays; assay: as above; details: Application herbicide amount 320 g/ha; effect on crop
How it was run: as §1

[16] = tested on: Triticum aestivum; assay: as above; details: Application herbicide amount 320 g/ha; effect on crop
How it was run: as §1

[17] = tested on: Beta vulgaris ssp. vulgaris; assay: as above; details: Application herbicide amount 320 g/ha; effect on crop
How it was run: as §1

[18] = tested on: Glycine max; assay: as above; details: Application herbicide amount 320 g/ha; effect on crop
How it was run: as §1

[19] = tested on: Chenopodium album; assay: Test Example 4: herbicidal effect by application to foliage (diluvial soil, plastic box); details: Application herbicide amount 320 g/ha
How it was run: as §1

SMILES | H [1] | F [2] | M [3] | R [4] | K [5] | I [6] | Q [7] | L [8] | J [9] | C (Monochoria vaginalis) herbicidal ratio grade [10] | A (Echinochloa oryzicola Vasing.) herbicidal ratio grade [11] | B (Scirpus juncoides) herbicidal ratio grade [12] | g [13] | d [14] | b [15] | e [16] | f [17] | c [18] | O [19]
C=CCSc1nnc2c(C(=O)Nc3nnc(C)o3)ccc(C(F)(F)F)n12 [1-064] | 5 (Herbicidal ratio of 90% or more (almost completely withered)) | 5 (Herbicidal ratio of 90% or more (almost completely withered)) | 3 (Herbicidal ratio of 40% or more and less than 70%) | 3 (Herbicidal ratio of 40% or more and less than 70%) | 1 (Herbicidal ratio of 5% or more and less than 20%) | 1 (Herbicidal ratio of 5% or more and less than 20%) | 3 (Herbicidal ratio of 40% or more and less than 70%) | 1 (Herbicidal ratio of 5% or more and less than 20%) | 1 (Herbicidal ratio of 5% or more and less than 20%) | 2 (Herbicidal ratio of 20% or more and less than 40%) | 2 (Herbicidal ratio of 20% or more and less than 40%) | 3 (Herbicidal ratio of 40% or more and less than 70%) | 3 (Herbicidal ratio of 40% or more and less than 70%) | 3 (Herbicidal ratio of 40% or more and less than 70%) | 0 (Herbicidal ratio of 5% or less (almost no effect)) | 0 (Herbicidal ratio of 5% or less (almost no effect)) | 4 (Herbicidal ratio of 70% or more and less than 90%) | 0 (Herbicidal ratio of 5% or less (almost no effect)) | 
COCCOC(=O)Cc1nnc2c(C(=O)Nc3nnc(C)o3)ccc(C(F)(F)F)n12 [1-060] | 5 (Herbicidal ratio of 90% or more (almost completely withered)) | 5 (Herbicidal ratio of 90% or more (almost completely withered)) | 4 (Herbicidal ratio of 70% or more and less than 90%) | 5 (Herbicidal ratio of 90% or more (almost completely withered)) | 2 (Herbicidal ratio of 20% or more and less than 40%) | 3 (Herbicidal ratio of 40% or more and less than 70%) | 3 (Herbicidal ratio of 40% or more and less than 70%) | 1 (Herbicidal ratio of 5% or more and less than 20%) | 2 (Herbicidal ratio of 20% or more and less than 40%) | 2 (Herbicidal ratio of 20% or more and less than 40%) | 2 (Herbicidal ratio of 20% or more and less than 40%) | 3 (Herbicidal ratio of 40% or more and less than 70%) | 4 (Herbicidal ratio of 70% or more and less than 90%) | 4 (Herbicidal ratio of 70% or more and less than 90%) | 3 (Herbicidal ratio of 40% or more and less than 70%) | 3 (Herbicidal ratio of 40% or more and less than 70%) | 5 (Herbicidal ratio of 90% or more (almost completely withered)) | 0 (Herbicidal ratio of 5% or less (almost no effect)) | 5 (Herbicidal ratio of 90% or more (almost completely withered))
Cc1nnc(NC(=O)c2ccc(C(F)(F)F)n3c(-c4cc5ccccc5n4C)nnc23)o1 [1-059] | 2 (Herbicidal ratio of 20% or more and less than 40%) | 0 (Herbicidal ratio of 5% or less (almost no effect)) | 4 (Herbicidal ratio of 70% or more and less than 90%) | 2 (Herbicidal ratio of 20% or more and less than 40%) | 0 (Herbicidal ratio of 5% or less (almost no effect)) | 0 (Herbicidal ratio of 5% or less (almost no effect)) | 0 (Herbicidal ratio of 5% or less (almost no effect)) | 0 (Herbicidal ratio of 5% or less (almost no effect)) | 0 (Herbicidal ratio of 5% or less (almost no effect)) | 2 (Herbicidal ratio of 20% or more and less than 40%) | 2 (Herbicidal ratio of 20% or more and less than 40%) | 3 (Herbicidal ratio of 40% or more and less than 70%) | 0 (Herbicidal ratio of 5% or less (almost no effect)) | 0 (Herbicidal ratio of 5% or less (almost no effect)) | 0 (Herbicidal ratio of 5% or less (almost no effect)) | 0 (Herbicidal ratio of 5% or less (almost no effect)) | 0 (Herbicidal ratio of 5% or less (almost no effect)) | 0 (Herbicidal ratio of 5% or less (almost no effect)) | 5 (Herbicidal ratio of 90% or more (almost completely withered))
COCCSc1nnc2c(C(=O)Nc3nnc(C)o3)ccc(C(F)(F)F)n12 [1-063] | 5 (Herbicidal ratio of 90% or more (almost completely withered)) | 5 (Herbicidal ratio of 90% or more (almost completely withered)) | 4 (Herbicidal ratio of 70% or more and less than 90%) | 5 (Herbicidal ratio of 90% or more (almost completely withered)) | 2 (Herbicidal ratio of 20% or more and less than 40%) | 2 (Herbicidal ratio of 20% or more and less than 40%) | 3 (Herbicidal ratio of 40% or more and less than 70%) | 3 (Herbicidal ratio of 40% or more and less than 70%) | 2 (Herbicidal ratio of 20% or more and less than 40%) | 2 (Herbicidal ratio of 20% or more and less than 40%) | 4 (Herbicidal ratio of 70% or more and less than 90%) | 3 (Herbicidal ratio of 40% or more and less than 70%) | 3 (Herbicidal ratio of 40% or more and less than 70%) | 4 (Herbicidal ratio of 70% or more and less than 90%) | 0 (Herbicidal ratio of 5% or less (almost no effect)) | 2 (Herbicidal ratio of 20% or more and less than 40%) | 5 (Herbicidal ratio of 90% or more (almost completely withered)) | 3 (Herbicidal ratio of 40% or more and less than 70%) | 5 (Herbicidal ratio of 90% or more (almost completely withered))
CN(C)c1nnc2c(C(=O)Nc3nnco3)ccc(C(F)(F)F)n12 [1-103] | 5 (Herbicidal ratio of 90% or more (almost completely withered)) | 5 (Herbicidal ratio of 90% or more (almost completely withered)) | 4 (Herbicidal ratio of 70% or more and less than 90%) | 5 (Herbicidal ratio of 90% or more (almost completely withered)) | 3 (Herbicidal ratio of 40% or more and less than 70%) | 4 (Herbicidal ratio of 70% or more and less than 90%) | 4 (Herbicidal ratio of 70% or more and less than 90%) | 3 (Herbicidal ratio of 40% or more and less than 70%) | 2 (Herbicidal ratio of 20% or more and less than 40%) | 4 (Herbicidal ratio of 70% or more and less than 90%) | 4 (Herbicidal ratio of 70% or more and less than 90%) | 5 (Herbicidal ratio of 90% or more (almost completely withered)) | 5 (Herbicidal ratio of 90% or more (almost completely withered)) | 4 (Herbicidal ratio of 70% or more and less than 90%) | 1 (Herbicidal ratio of 5% or more and less than 20%) | 3 (Herbicidal ratio of 40% or more and less than 70%) | 5 (Herbicidal ratio of 90% or more (almost completely withered)) | 2 (Herbicidal ratio of 20% or more and less than 40%) | 5 (Herbicidal ratio of 90% or more (almost completely withered))
CC(=O)OCc1nnc2c(C(=O)Nc3nnc(C)o3)ccc(C(F)(F)F)n12 [1-062] | 5 (Herbicidal ratio of 90% or more (almost completely withered)) | 5 (Herbicidal ratio of 90% or more (almost completely withered)) | 5 (Herbicidal ratio of 90% or more (almost completely withered)) | 4 (Herbicidal ratio of 70% or more and less than 90%) | 0 (Herbicidal ratio of 5% or less (almost no effect)) | 3 (Herbicidal ratio of 40% or more and less than 70%) | 4 (Herbicidal ratio of 70% or more and less than 90%) | 1 (Herbicidal ratio of 5% or more and less than 20%) | 1 (Herbicidal ratio of 5% or more and less than 20%) | 2 (Herbicidal ratio of 20% or more and less than 40%) | 2 (Herbicidal ratio of 20% or more and less than 40%) | 2 (Herbicidal ratio of 20% or more and less than 40%) | 4 (Herbicidal ratio of 70% or more and less than 90%) | 3 (Herbicidal ratio of 40% or more and less than 70%) | 3 (Herbicidal ratio of 40% or more and less than 70%) | 2 (Herbicidal ratio of 20% or more and less than 40%) | 4 (Herbicidal ratio of 70% or more and less than 90%) | 0 (Herbicidal ratio of 5% or less (almost no effect)) | 5 (Herbicidal ratio of 90% or more (almost completely withered))
